# Assay results: patent US20260001914A1, “MACROCYCLIC PEPTIDES TARGETING KRAS” (Merck Sharp & Dohme LLC, priority 2022, published 2026)
# *1 amine or outer side, *2 acyl side, *3 side chain or, on linkers, in order; H or OH if unused. Where a SMILES comes first, the peptide text is derived from it. [ ]: non-standard residue; d: D form. X34 = O=C(C[C@@H](Cc1ccccc1)C(=O)[*:2])C12CC(CN[*:1])(C1)C2; Ala(pyrimidin-5-yl) = N[C@@H](Cc1cncnc1)C(=O)O; X6 = O=C([C@H](Cc1cnn(C2COC2)c1)N[*:1])[*:2]; NMe3Pal(5-F) = CN[C@@H](Cc1cncc(F)c1)C(=O)O; X14 = O=C([C@H](Cc1c(F)cncc1F)N[*:1])[*:2]; X33 = O=C([C@H](Cc1ccnc(F)c1F)N[*:1])[*:2]; X37 = O=C([C@H](Cc1cnc(F)cc1F)N[*:1])[*:2]; X42 = O=C([C@H](Cc1cc(F)ncc1F)N[*:1])[*:2]; X5 = O=C([C@H](Cc1c(F)ccnc1F)N[*:1])[*:2]; Leu(4,5-dehydro) = C=C(C)C[C@H](N)C(=O)O; X24 = O=C([C@H](Cc1ccncc1Cl)N[*:1])[*:2]; X11 = CC(C)(F)CC[C@H](N[*:1])C(=O)[*:2]; Nle(5,5-F2) = CC(F)(F)CC[C@H](N)C(=O)O; Phe(3-F) = N[C@@H](Cc1cccc(F)c1)C(=O)O; X28 = O=C([C@H](Cc1ncccn1)N[*:1])[*:2]; Phe(2-F) = N[C@@H](Cc1ccccc1F)C(=O)O; NMe3Pal = CN[C@@H](Cc1cccnc1)C(=O)O; X1 = O=C(C12CC(CN[*:1])(C1)C2)[*:2]; Ala(cPr) = N[C@@H](CC1CC1)C(=O)O; NMeF = CN[C@@H](Cc1ccccc1)C(=O)O; PhLac = O=C(O)[C@@H](O)Cc1ccccc1; 3Pal = N[C@@H](Cc1cccnc1)C(=O)O; Cba = N[C@@H](CC1CCC1)C(=O)O; hLeu = CC(C)CC[C@H](N)C(=O)O; NMeA = CN[C@@H](C)C(=O)O; Pra = C#CC[C@H](N)C(=O)O
# Target: phosphorylation levels of ERK1/2 in AsPC-1 (homozygous KRAS-G12D) cells (Homo sapiens, UniProt P01116, G12D)
# Test: Cellular phospho-ERK assay in AsPC-1 cells (Alpha Screen), assay medium without fetal bovine serum;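 also: signal taken as phospho-ERK over total ERK per well, both detected in one multiplex bead assay, EC50 from four-parameter logistic fit of dose-response curves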
# Format: cell-based
# Settings: phospho-ERK AlphaScreen, 18 h
# Protocol: Assay plate was incubated at 37° C. 5% CO2 for the indicated length of time. […] Phosphorylated ERK and total ERK levels were detected by Alpha SureFire Ultra Multiplex pERK kit (PerkinElmer MPSU-PTERK) using 5 μL, acceptor bead mix and 5 μL donor bead mix, both prepared following the manufacturer's protocol. Plates were sealed using aluminum sealing tape (Costar 07-200-683) during incubation at ambient temperature with constant shaking at 300 rpm for 1 h (both acceptor and donor). Assay plates were read on a Envision Xcite Multilabel Reader (PerkinElmer 1040900) at ambient temperature, with emission at 535 nm (Total ERK) and emission at 615 nm (Phospho ERK). Ratio of pERK vs total ERK in each well was used as the final readout. Dose response curves and EC50 were analyzed using a 4-parameter logistic equation in GraphPad Prism software.
# Chain of phosphorylation levels of ERK1/2 in AsPC-1 (homozygous KRAS-G12D) cells (P01116 1-186 G12D): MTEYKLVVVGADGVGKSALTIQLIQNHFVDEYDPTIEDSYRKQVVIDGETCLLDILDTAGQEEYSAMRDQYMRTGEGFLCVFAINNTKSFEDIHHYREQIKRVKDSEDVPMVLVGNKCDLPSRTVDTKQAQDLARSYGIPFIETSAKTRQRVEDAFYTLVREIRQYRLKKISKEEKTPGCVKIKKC
row,SMILES,EC50 [µM]
1,"CC(C)CC[C@@H]1NC(=O)[C@H](Cc2cc(F)ncc2F)NC(=O)[C@H](CC2CC2)NC(=O)[C@H](Cc2cncnc2)NC(=O)[C@H](C)N(C)C(=O)[C@H](Cc2ccccc2)OC(=O)C23CC(CNC(=O)[C@H](Cc4ccccc4)N(C)C1=O)(C2)C3 [compound 280, cyclo(FLac-NMcA-PyrimAla-cPrA-4Pal25F2-hL-NMeF-amBCP)] (cyclo([Ala(cPr)][X42][hLeu][NMeF][X1][PhLac][NMeA][Ala(pyrimidin-5-yl)]))",1.23
2,"CC(C)CC[C@@H]1NC(=O)[C@H](Cc2ccccc2F)NC(=O)[C@H](CC2CC2)NC(=O)[C@H](Cc2ncccn2)NC(=O)[C@H](C)N(C)C(=O)[C@H](Cc2ccccc2)OC(=O)C23CC(CNC(=O)[C@H](Cc4ccccc4)N(C)C1=O)(C2)C3 [compound 281, cyclo(FLac-NMeA-2PyrimAla-cPrA-Phe2F-hL-NMeF-amBCP)] (cyclo([Ala(cPr)][Phe(2-F)][hLeu][NMeF][X1][PhLac][NMeA][X28]))",9.89
3,"CC(C)CC[C@@H]1NC(=O)[C@H](Cc2ccccc2F)NC(=O)[C@H](CC2CC2)NC(=O)[C@H](Cc2cncnc2)NC(=O)[C@H](C)N(C)C(=O)[C@H](Cc2ccccc2)OC(=O)C23CC(CNC(=O)[C@H](Cc4cncc(F)c4)N(C)C1=O)(C2)C3 [compound 282, cyclo(FLac-NMeA-PyrimAla-cPrA-Phe2F-hL-NMe3Pal5F-amBCP)] (cyclo([Ala(cPr)][Phe(2-F)][hLeu][NMe3Pal(5-F)][X1][PhLac][NMeA][Ala(pyrimidin-5-yl)]))",2.49
4,"CC(C)CC[C@@H]1NC(=O)[C@H](Cc2ccccc2F)NC(=O)[C@H](CC2CC2)NC(=O)[C@H](Cc2cccnc2)NC(=O)[C@H](C)N(C)C(=O)[C@H](Cc2ccccc2)OC(=O)C23CC(CNC(=O)[C@H](Cc4cncc(F)c4)N(C)C1=O)(C2)C3 [compound 283, cyclo(FLac-NMeA-3Pal-cPrA-Phe2F-hL-NMe3Pal5F-amBCP)] (cyclo([3Pal][Ala(cPr)][Phe(2-F)][hLeu][NMe3Pal(5-F)][X1][PhLac][NMeA]))",1.27
5,"C[C@H]1C(=O)N[C@@H](Cc2cccnc2)C(=O)N[C@@H](CC2CC2)C(=O)N[C@@H](Cc2ccccc2F)C(=O)N[C@@H](CCC(C)(C)F)C(=O)N(C)[C@@H](Cc2cncc(F)c2)C(=O)NCC23CC(C2)(C3)C(=O)O[C@@H](Cc2ccccc2)C(=O)N1C [compound 284, cyclo(FLac-NMeA-3Pal-cPrA-Phe2F-hL3F-NMe3Pal5F-amBCP)] (cyclo([3Pal][Ala(cPr)][Phe(2-F)][X11][NMe3Pal(5-F)][X1][PhLac][NMeA]))",4.59
6,"C[C@H]1C(=O)N[C@@H](Cc2cccnc2)C(=O)N[C@@H](CC2CCC2)C(=O)N[C@@H](Cc2ccccc2F)C(=O)N[C@@H](CCC(C)(F)F)C(=O)N(C)[C@@H](Cc2cncc(F)c2)C(=O)NCC23CC(C2)(C3)C(=O)O[C@@H](Cc2ccccc2)C(=O)N1C [compound 285, cyclo(FLac-NMeA-3Pal-cBuA-Phe2F-Nle3F2-NMe3Pal5F-amBCP)] (cyclo([3Pal][Cba][Phe(2-F)][Nle(5,5-F2)][NMe3Pal(5-F)][X1][PhLac][NMeA]))",5.78
7,"C#CC[C@@H]1NC(=O)[C@H](CC2CC2)NC(=O)[C@H](Cc2cncnc2)NC(=O)[C@H](C)N(C)C(=O)[C@H](Cc2ccccc2)OC(=O)C23CC(CNC(=O)[C@H](Cc4ccccc4)N(C)C(=O)[C@H](CCC(C)C)NC1=O)(C2)C3 [compound 286, cyclo(FLac-NMeA-PyrimAla-cPrA-Pra-hL-NMeF-amBCP)] (cyclo([Ala(cPr)][Pra][hLeu][NMeF][X1][PhLac][NMeA][Ala(pyrimidin-5-yl)]))",30.3
8,"C=C(C)C[C@@H]1NC(=O)[C@H](CC2CC2)NC(=O)[C@H](Cc2cncnc2)NC(=O)[C@H](C)N(C)C(=O)[C@H](Cc2ccccc2)OC(=O)C23CC(CNC(=O)[C@H](Cc4ccccc4)N(C)C(=O)[C@H](CCC(C)C)NC1=O)(C2)C3 [compound 287, cyclo(FLac-NMeA-PyrimAla-cPrA-deHLeu-hL-NMeF-amBCP)] (cyclo([Ala(cPr)][Leu(4,5-dehydro)][hLeu][NMeF][X1][PhLac][NMeA][Ala(pyrimidin-5-yl)]))",17.1
9,"C[C@H]1C(=O)N[C@@H](Cc2cncnc2)C(=O)N[C@@H](CCC(C)(F)F)C(=O)N[C@@H](Cc2ccccc2F)C(=O)N[C@@H](CCC(C)(F)F)C(=O)N(C)[C@@H](Cc2ccccc2)C(=O)NCC23CC(C2)(C3)C(=O)O[C@@H](Cc2ccccc2)C(=O)N1C [compound 288, cyclo(FLac-NMeA-PyrimAla-Nle3F2-Phe2F-Nle3F2-NMeF-amBCP)] (cyclo([NMeA][Ala(pyrimidin-5-yl)][Nle(5,5-F2)][Phe(2-F)][Nle(5,5-F2)][NMeF][X1][PhLac]))",6.61
10,"C[C@H]1C(=O)N[C@@H](Cc2cccnc2)C(=O)N[C@@H](CC2CC2)C(=O)N[C@@H](Cc2ccccc2F)C(=O)N[C@@H](CCC(C)(F)F)C(=O)N(C)[C@@H](Cc2ccccc2)C(=O)NCC23CC(C2)(C3)C(=O)O[C@@H](Cc2ccccc2)C(=O)N1C [compound 289, cyclo(FLac-NMeA-3Pal-cPrA-Phe2F-Nle3F2-NMeF-amBCP)] (cyclo([3Pal][Ala(cPr)][Phe(2-F)][Nle(5,5-F2)][NMeF][X1][PhLac][NMeA]))",1.07
11,"C[C@H]1C(=O)N[C@@H](Cc2cncnc2)C(=O)N[C@@H](CC2CC2)C(=O)N[C@@H](Cc2ccccc2F)C(=O)N[C@@H](CCC(C)(F)F)C(=O)N(C)[C@@H](Cc2ccccc2)C(=O)NCC23CC(C2)(C3)C(=O)C[C@@H](Cc2ccccc2)C(=O)N1C [compound 290, cyclo(CPhe-NMeA~PyrimAla-cPrA-Phe2F-Nle3F2-NMeF-amBCP)] (cyclo([Ala(cPr)][Phe(2-F)][Nle(5,5-F2)][NMeF][X34][NMeA][Ala(pyrimidin-5-yl)]))",1.07
12,"C[C@H]1C(=O)N[C@@H](Cc2cnn(C3COC3)c2)C(=O)N[C@@H](CC2CC2)C(=O)N[C@@H](Cc2ccccc2F)C(=O)N[C@@H](CCC(C)(F)F)C(=O)N(C)[C@@H](Cc2ccccc2)C(=O)NCC23CC(C2)(C3)C(=O)O[C@@H](Cc2ccccc2)C(=O)N1C [compound 291, cyclo(FLac-NMcA-AlaPyzlOx-cPrA-Phe2F-Nle3F2-NMeF-amBCP)] (cyclo([Ala(cPr)][Phe(2-F)][Nle(5,5-F2)][NMeF][X1][PhLac][NMeA][X6]))",3.25
13,"CC(C)CC[C@@H]1NC(=O)[C@H](Cc2c(F)cncc2F)NC(=O)[C@H](CC2CC2)NC(=O)[C@H](Cc2cncnc2)NC(=O)[C@H](C)N(C)C(=O)[C@H](Cc2ccccc2)OC(=O)C23CC(CNC(=O)[C@H](Cc4ccccc4)N(C)C1=O)(C2)C3 [compound 292, cyclo(FLac-NMeA-PyrimAla-cPrA-4Pal26F2-hL-NMeF-amBCP)] (cyclo([Ala(cPr)][X14][hLeu][NMeF][X1][PhLac][NMeA][Ala(pyrimidin-5-yl)]))",14.5
14,"CC(C)CC[C@@H]1NC(=O)[C@H](Cc2ccnc(F)c2F)NC(=O)[C@H](CC2CC2)NC(=O)[C@H](Cc2cncnc2)NC(=O)[C@H](C)N(C)C(=O)[C@H](Cc2ccccc2)OC(=O)C23CC(CNC(=O)[C@H](Cc4ccccc4)N(C)C1=O)(C2)C3 [compound 293, cyclo(FLac-NMeA-PyrimAla-cPrA-4Pal23F2-hL-NMeF-amBCP)] (cyclo([Ala(cPr)][X33][hLeu][NMeF][X1][PhLac][NMeA][Ala(pyrimidin-5-yl)]))",45.5
15,"CC(C)CC[C@@H]1NC(=O)[C@H](Cc2cnc(F)cc2F)NC(=O)[C@H](CC2CC2)NC(=O)[C@H](Cc2cncnc2)NC(=O)[C@H](C)N(C)C(=O)[C@H](Cc2ccccc2)OC(=O)C23CC(CNC(=O)[C@H](Cc4ccccc4)N(C)C1=O)(C2)C3 [compound 294, cyclo(FLac-NMeA-PyrimAla-cPrA-3Pal46F2-hL-NMeF-amBCP)] (cyclo([Ala(cPr)][X37][hLeu][NMeF][X1][PhLac][NMeA][Ala(pyrimidin-5-yl)]))",4.66
16,"CC(C)CC[C@@H]1NC(=O)[C@H](Cc2c(F)ccnc2F)NC(=O)[C@H](CC2CC2)NC(=O)[C@H](Cc2cncnc2)NC(=O)[C@H](C)N(C)C(=O)[C@H](Cc2ccccc2)OC(=O)C23CC(CNC(=O)[C@H](Cc4ccccc4)N(C)C1=O)(C2)C3 [compound 295, cyclo(FLac-NMeA-PyrimAla-cPrA-3Pal26F2-hL-NMeF-amBCP)] (cyclo([Ala(cPr)][X5][hLeu][NMeF][X1][PhLac][NMeA][Ala(pyrimidin-5-yl)]))",29.6
17,"C[C@H]1C(=O)N[C@@H](Cc2cncnc2)C(=O)N[C@@H](CC2CC2)C(=O)N[C@@H](Cc2ccncc2Cl)C(=O)N[C@@H](CCC(C)(C)F)C(=O)N(C)[C@@H](Cc2ccccc2)C(=O)NCC23CC(C2)(C3)C(=O)O[C@@H](Cc2ccccc2)C(=O)N1C [compound 299, cyclo(FLac-NMeA-PyrimAla-cPrA-4Pal2Cl-hL3F-NMeF-amBCP)] (cyclo([Ala(cPr)][X24][X11][NMeF][X1][PhLac][NMeA][Ala(pyrimidin-5-yl)]))",> 50.8
18,"CC(C)CC[C@@H]1NC(=O)[C@H](Cc2cnn(C3COC3)c2)NC(=O)[C@H](CC2CC2)NC(=O)[C@H](Cc2cncnc2)NC(=O)[C@H](C)N(C)C(=O)[C@H](Cc2ccccc2)OC(=O)C23CC(CNC(=O)[C@H](Cc4ccccc4)N(C)C1=O)(C2)C3 [compound 300, cyclo(FLac-NMeA-PyrimAla-cPrA-AlaPyz1Ox-hL-NMeF-amBCP)] (cyclo([Ala(cPr)][X6][hLeu][NMeF][X1][PhLac][NMeA][Ala(pyrimidin-5-yl)]))",> 50.8
19,"CC(C)CC[C@@H]1NC(=O)[C@H](Cc2ccccc2F)NC(=O)[C@H](CC2CC2)NC(=O)[C@H](Cc2cnn(C3COC3)c2)NC(=O)[C@H](C)N(C)C(=O)[C@H](Cc2ccccc2)OC(=O)C23CC(CNC(=O)[C@H](Cc4cccnc4)N(C)C1=O)(C2)C3 [compound 301, cyclo(FLac-NMeA-AlaPyz1Ox-cPrA-Phe2F-hL-NMe3Pal-amBCP)] (cyclo([Ala(cPr)][Phe(2-F)][hLeu][NMe3Pal][X1][PhLac][NMeA][X6]))",39.5
20,"CC(C)CC[C@@H]1NC(=O)[C@H](Cc2cccc(F)c2)NC(=O)[C@H](CC2CCC2)NC(=O)[C@H](Cc2cncnc2)NC(=O)[C@H](C)N(C)C(=O)[C@H](Cc2ccccc2)OC(=O)C23CC(CNC(=O)[C@H](Cc4ccccc4)N(C)C1=O)(C2)C3 [compound 303, cyclo(FLac-NMeA-PyrimAla-cBuA-Phe3F-hL-NMeF-amBCP)] (cyclo([Cba][Phe(3-F)][hLeu][NMeF][X1][PhLac][NMeA][Ala(pyrimidin-5-yl)]))",0.806
